Measurements: US20230404989A1, “GRK2 INHIBITION BY PAROXETINE AMELIORATES OSTEOARTHRITIS” (THE PENN STATE RESEARCH FOUNDATION, priority 2020, published 2023)

System: DMM mice
Test: Response threshold to mechanical pain stimulus in DMM mice
Type: in vivo, mouse
Details: daily treatment week 8 to 12, measured 12 weeks following DMM
From the text: Paroxetine attenuates pain sensitivity of DMM mice. Response threshold to mechanical pain stimulus measured in sham mice and DMM mice 12 weeks following DMM. DMM mice received respective daily treatments from week 8 until week 12 following DMM: vehicle (V) or Paroxetine (Px). *P<0.05 & ***P<0.001.

## Fc1ccc([C@@H]2CCNC[C@H]2COc2ccc3c(c2)OCO3)cc1 [paroxetine]
  pain sensitivity (response threshold to mechanical pain stimulus): attenuates
